The test system of series [1] is AD38 cells. The series can be described thus: Viability of AD38 cells (Promega CellTiter-Glo). In kind it is cell-based. The note with it: 10 μM compound, 6 days, CellTiter-Glo luminescence normalized to DMSO control (100%). In outline:
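After 6 days of compound exposure at 37° C (compound added as 10× solution in 10% DMSO; 50,000 cells/well, collagen-coated), medium was replaced with tetracycline-free DMEM/F12, 2% FBS, 1% DMSO. CellTiter-Glo luminescence was then recorded and normalized to DMSO-treated wells as 100% viability.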
On the technique in general: In ATP-based viability assays light output follows the ATP content of the culture.

In series [2] the test system is HBV viral load in AD38 cells. As to the kind of experiment: Viral load production in AD38 cells, quantitative PCR of the core sequence in supernatant. In kind it is cell-based. The settings on record: Hepatitis B virus, 144 h, 10 μM compound, 6 days at 37° C., supernatant qPCR, relative to DMSO control; read-out: AD38 Viral Load (%) (VL with cmpd/VL in DMSO control) at 10 μM. A general note: In qPCR the cycle at which signal appears reflects the starting amount.

From patent publication US11814376B2, “Hepatitis b core protein modulators” (Assembly Biosciences, Inc., priority 2015, dated 2023) come the findings set out here.

The structures appear in SMILES notation.

For `O=C(NCc1cnc(-c2ccc(O)c(F)c2)s1)c1ccc2c(c1)NC(=O)c1ccccc1S2(=O)=O` [compound 1664], the “AD38 Viability Normalized Result (cmpd/DMSO %) at 10 μM” value in series [1] came out at 99%. In addition, the activity at 10 µM in series [2] turned out to be 0.6%.
For `O=C(NCc1cnc(-c2cc(F)c(O)c(F)c2)s1)c1ccc2c(c1)NC(=O)c1ccccc1S2(=O)=O` [compound 1665] the same measures were 90% and 2.7%.
The like results for `COc1ccc(-c2ncc(CNC(=O)c3ccc4c(c3)NC(=O)c3ccccc3S4(=O)=O)s2)cn1` [compound 1666, N-((2-(6-methoxypyridin-3-yl)thiazol-5-yl)methyl)-11-oxo-10, 11-dihydrodibenzo [b, f] [1, 4] thiazepine-8-carboxamide 5,5-dioxide] were, in that order, 98% and 0.9%.
As to `O=C(NCc1cnc(-c2ccc(O)c(Cl)c2)s1)c1ccc2c(c1)NC(=O)c1ccccc1S2(=O)=O` [compound 1667], the “AD38 Viability Normalized Result (cmpd/DMSO %) at 10 μM” value in series [1] was 93%. Besides, the activity at 10 µM in series [2] was determined as 0.5%.
As for `O=C(NCc1cnc(-c2ccc(O)cc2Cl)s1)c1ccc2c(c1)NC(=O)c1ccccc1S2(=O)=O` [compound 1668], the “AD38 Viability Normalized Result (cmpd/DMSO %) at 10 μM” value in series [1] is 106%. Further, in series [2], the activity at 10 µM was 23.4%.
The like results for `O=C(NCc1cnc(-c2ccc(O)nc2)s1)c1ccc2c(c1)NC(=O)c1ccccc1S2(=O)=O` [compound 1669, N-((2-(6-hydroxypyridin-3-yl)thiazol-5-yl)methyl)-11-oxo-10, 11-dihydrodibenzo [b, f] [1, 4] thiazepine-8-carboxamide 5,5-dioxide] were, in that order, 104% and 13.1%.
For the compound `O=C(NCc1cnc(-c2ccc(O)cc2F)s1)c1ccc2c(c1)NC(=O)c1ccccc1S2(=O)=O` [compound 1670], in series [1], the “AD38 Viability Normalized Result (cmpd/DMSO %) at 10 μM” value turned out to be 102%. For the same compound, the activity at 10 µM in series [2] turned out to be 0.9%.
The like results for `O=C(NCc1cnc(-c2cnc(O)nc2)s1)c1ccc2c(c1)NC(=O)c1ccccc1S2(=O)=O` [compound 1671, N-((2-(2-hydroxypyrimidin-5-yl)thiazol-5-yl)methyl)-11-oxo-10, 11-dihydrodibenzo [b, f] [1, 4] thiazepine-8-carboxamide 5,5-dioxide] were, in that order, 100% and 18.2%.
Turning to `Nc1ccc(-c2ncc(CNC(=O)c3ccc4c(c3)NC(=O)c3ccccc3S4(=O)=O)s2)cn1` [compound 1672], the “AD38 Viability Normalized Result (cmpd/DMSO %) at 10 μM” value in series [1] turned out to be 101%. Besides, the activity at 10 µM in series [2] was determined as 0.6%.
For `Nc1ncc(-c2ncc(CNC(=O)c3ccc4c(c3)NC(=O)c3ccccc3S4(=O)=O)s2)cn1` [compound 1673] the same measures were 105% and 3.2%.
On to `CN(C)c1ccc(-c2ncc(CNC(=O)c3ccc4c(c3)NC(=O)c3ccccc3S4(=O)=O)s2)cn1` [compound 1674], for which, in series [1], the “AD38 Viability Normalized Result (cmpd/DMSO %) at 10 μM” value was determined as 121%. The activity at 10 µM in series [2] came out at 0.3%.
`CN(C)c1ncc(-c2ncc(CNC(=O)c3ccc4c(c3)NC(=O)c3ccccc3S4(=O)=O)s2)cn1` [compound 1675]: the “AD38 Viability Normalized Result (cmpd/DMSO %) at 10 μM” value in series [1] is 115%. For the same compound, the activity at 10 µM in series [2] turned out to be 2.3%.
Regarding `CN(C)CCCOc1ccc(-c2ncc(CNC(=O)c3ccc4c(c3)NC(=O)c3ccccc3S4(=O)=O)s2)cc1` [compound 1679], in series [1], the “AD38 Viability Normalized Result (cmpd/DMSO %) at 10 μM” value amounted to 94%. The activity at 10 µM in series [2] is 1.1%.
The like results for `CN(C)CCCOc1ncc(CNC(=O)c2ccc3c(c2)NC(=O)c2ccccc2S3(=O)=O)s1` [compound 1680, N-((2-(3-(dimethylamino)propoxy)thiazol-5-yl)methyl)-11-oxo-10, 11-dihydrodibenzo [b, f] [1, 4] thiazepine-8-carboxamide 5,5-dioxide] were, in that order, 94% and 15%.
For the compound `CN(C)CCOc1ncc(CN(C)C(=O)c2ccc3c(c2)NC(=O)c2ccccc2O3)s1` [compound 1686, N-((2-(2-(dimethylamino)ethoxy)thiazol-5-yl)methyl)-N-methyl-11-oxo-10, 11-dihydrodibenzo [b, f] [1, 4] oxazepine-8-carboxamide], the “AD38 Viability Normalized Result (cmpd/DMSO %) at 10 μM” value in series [1] worked out at 102%. In addition, the activity at 10 µM in series [2] came out at 58.4%.
For `CN(C)CCCOc1ncc(CN(C)C(=O)c2ccc3c(c2)NC(=O)c2ccccc2O3)s1` [compound 1687, N-((2-(3-(dimethylamino)propoxy)thiazol-5-yl)methyl)-N-methyl-11-oxo-10, 11-dihydrodibenzo [b, f] [1, 4] oxazepine-8-carboxamide] the same measures were 102% and 49.2%.
For `CN(C)CCCOc1ncc(CNC(=O)c2ccc3c(c2)NC(=O)c2ccccc2O3)s1` [compound 1691, N-((2-(3-(dimethylamino)propoxy)thiazol-5-yl)methyl)-11-oxo-10, 11-dihydrodibenzo [b, f] [1, 4] oxazepine-8-carboxamide] the same measures were 89% and 77.1%.
As for `CN1CCN(c2ncc(CNC(=O)c3ccc4c(c3)NC(=O)c3ccccc3O4)s2)CC1` [compound 1694], in series [1], the “AD38 Viability Normalized Result (cmpd/DMSO %) at 10 μM” value was 91%. Besides, in series [2], the activity at 10 µM was 61.1%.
For `O=C(NCc1cnc(-c2ccc3[nH]cnc3c2)s1)c1ccc2c(c1)NC(=O)c1ccccc1O2` [compound 1695] the same measures were 102% and 22.9%.
The like results for `O=C(NCc1cnc(-c2ccc3[nH]ccc3c2)s1)c1ccc2c(c1)NC(=O)c1ccccc1O2` [compound 1696] were, in that order, 109% and 0.8%.
The like results for `CN(C)c1ccc(-c2ncc(CNC(=O)c3ccc4c(c3)NC(=O)c3ccccc3O4)s2)cc1` [compound 1697] were, in that order, 90% and 5.5%.
As to `CN(C)CCCOc1ccc(-c2ncc(CNC(=O)c3ccc4c(c3)NC(=O)c3ccccc3O4)s2)cc1` [compound 1698], the “AD38 Viability Normalized Result (cmpd/DMSO %) at 10 μM” value in series [1] worked out at 91%. For the same compound, the activity at 10 µM in series [2] was found to be 2.7%.
The like results for `O=C(NCc1cnc(-c2ccc(O)c(F)c2)s1)c1ccc2c(c1)NC(=O)c1ccccc1O2` [compound 1700] were, in that order, 105% and 9.2%.
For the compound `O=C(NCc1cnc(-c2cc(F)c(O)c(F)c2)s1)c1ccc2c(c1)NC(=O)c1ccccc1O2` [compound 1701], the “AD38 Viability Normalized Result (cmpd/DMSO %) at 10 μM” value in series [1] was determined as 94%. Further, in series [2], the activity at 10 µM came to 2.1%.
For `O=C(NCc1cnc(-c2ccc(O)c(Cl)c2)s1)c1ccc2c(c1)NC(=O)c1ccccc1O2` [compound 1702] the same measures were 102% and 5.3%.
Regarding `O=C(NCc1cnc(-c2ccc(O)cc2Cl)s1)c1ccc2c(c1)NC(=O)c1ccccc1O2` [compound 1703], in series [1], the “AD38 Viability Normalized Result (cmpd/DMSO %) at 10 μM” value was found to be 93%. The activity at 10 µM in series [2] was determined as 3.1%.
Take `O=C(NCc1cnc(-c2ccc(O)cc2F)s1)c1ccc2c(c1)NC(=O)c1ccccc1O2` [compound 1704]: the “AD38 Viability Normalized Result (cmpd/DMSO %) at 10 μM” value in series [1] amounted to 96%. For the same compound, in series [2], the activity at 10 µM stood at 47.6%.
